According to ChEMBL document CHEMBL5137037, “Phage Display Selected Cyclic Peptide Inhibitors of Kallikrein-Related Peptidases 5 and 7 and Their In Vivo Delivery to the Skin” (J Med Chem, 2022):
Numbered stars: 1 amine (or outer) side, 2 acyl side, 3 side chain; on linkers, the order of the positions; unused ones are H or OH. Bridge positions count the residues as written; N and C are the ends. Peptide text beside a SMILES is read from it. * marks the point of attachment. Pyridine(2,6-diCH2) = c1cc(C[*:1])nc(C[*:2])c1; Pyrrolidin1yl(2S-Ac) = CC(=O)[C@@H]1CCCN1*; CH2COCH2 = O=C(C[*:1])C[*:2]

The compounds below were run against T1, Kallikrein-5 (Homo sapiens, UniProt Q9Y337) (assay: Inhibition of C-terminal poly-His-tagged human recombinant KLK5 (30 to 293 residues) transfected in CHO cells assessed as inhibition constant using Boc-VPR-AMC as fluorogenic substrate incubated for 30 mins by fluorescence plate reader assay). Settings: not given.
T1 sequence (Q9Y337 whole entry): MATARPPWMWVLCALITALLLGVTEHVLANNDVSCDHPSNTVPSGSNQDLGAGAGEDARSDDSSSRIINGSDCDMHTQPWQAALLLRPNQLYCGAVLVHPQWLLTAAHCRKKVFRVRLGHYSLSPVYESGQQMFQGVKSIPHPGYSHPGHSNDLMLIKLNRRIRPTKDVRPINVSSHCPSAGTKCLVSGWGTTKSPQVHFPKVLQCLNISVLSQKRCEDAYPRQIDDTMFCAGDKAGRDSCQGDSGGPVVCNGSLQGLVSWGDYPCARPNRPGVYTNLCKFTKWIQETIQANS
Assay type: cell-based

In order of falling Ki:
1. CSCC[C@H](N)C(=O)N[C@H]1CSCC(=O)CSC[C@@H](C(=O)N[C@H]2CSCC(=O)CSC[C@@H](C(=O)N3CCC[C@H]3C(=O)O)NC(=O)[C@H]([C@@H](C)O)NC(=O)[C@H](CCCNC(=N)N)NC(=O)[C@H](CCC(N)=O)NC(=O)[C@@H]3CCCN3C2=O)NC(=O)[C@H](CC(C)C)NC(=O)[C@H](CO)NC(=O)[C@@H]2CCCN2C(=O)[C@H](CC(=O)O)NC(=O)[C@H](Cc2c[nH]c3ccccc23)NC(=O)[C@H](CCC(N)=O)NC(=O)[C@H](CCCNC(=N)N)NC(=O)[C@H](CO)NC1=O  24 nM
2. C[C@@H](O)[C@@H]1NC(=O)[C@@H](NC(=O)CN)CSCC(=O)CSC[C@@H](C(=O)O)NC(=O)[C@@H]2CCCN2C(=O)[C@H](Cc2c[nH]c3ccccc23)NC(=O)[C@H](CCC(N)=O)NC(=O)[C@H](CCCNC(=N)N)NC1=O  3.6 nM

What follows are compounds tested against Kallikrein-7 (Homo sapiens, UniProt P49862) (assay: Inhibition of C-terminal poly-His-tagged human recombinant KLK7 (30 to 253 residues) transfected in CHO cells assessed as inhibition constant using KHLY-pNA as fluorogenic substrate incubated for 30 mins by fluorescence plate reader assay). Settings: not given.
Sequence of Kallikrein-7 (P49862 whole entry, the tested form may be a part): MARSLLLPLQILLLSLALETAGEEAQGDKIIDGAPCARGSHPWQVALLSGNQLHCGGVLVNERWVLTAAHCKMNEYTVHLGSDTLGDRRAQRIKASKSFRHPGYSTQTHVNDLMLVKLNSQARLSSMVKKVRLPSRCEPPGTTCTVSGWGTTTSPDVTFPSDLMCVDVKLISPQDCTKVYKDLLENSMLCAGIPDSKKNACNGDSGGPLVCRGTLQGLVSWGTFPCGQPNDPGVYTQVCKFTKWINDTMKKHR
Assay type: cell-based

Compared with `CC(C)C[C@@H]1NC(=O)[C@H](Cc2ccc(O)cc2)NC(=O)[C@H](CC(C)C)NC(=O)[C@@H](N)CSCc2cccc(n2)CSC[C@@H](C(=O)N[C@@H](CO)C(=O)O)NC(=O)[C@H](C)NC1=O` (H-CLYLACS-OH; linker 1-6 via Pyridine(2,6-diCH2)), `CC(C)C[C@@H]1NC(=O)[C@H](Cc2ccc(O)cc2)NC(=O)[C@H](CC(C)C)NC(=O)[C@@H](NC(=O)[C@@H]2CCCN2)CSCc2cccc(n2)CSC[C@@H](C(=O)N[C@@H](CO)C(=O)O)NC(=O)[C@H](C)NC1=O` (H-PCLYLACS-OH; linker 2-7 via Pyridine(2,6-diCH2)) is 11-fold lower in Ki: 200 nM for the first, 17.5 nM for the second.

Going from `CSCC[C@@H]1NC(=O)[C@H](Cc2ccc(O)cc2)NC(=O)[C@H](CC(C)C)NC(=O)[C@@H](NC(=O)[C@@H]2CCCN2)CSCC(=O)CSC[C@@H](C(=O)N[C@@H](CO)C(=O)O)NC(=O)[C@H](CCCNC(=N)N)NC(=O)[C@H](C)NC1=O` (H-PCLYMARCS-OH; linker 2-8 via CH2COCH2) to `CC(C)C[C@@H]1NC(=O)[C@H](Cc2ccc(O)cc2)NC(=O)[C@H](CC(C)C)NC(=O)[C@@H](NC(=O)[C@@H]2CCCN2)CSCC(=O)CSC[C@@H](C(=O)N[C@@H](CO)C(=O)O)NC(=O)[C@H](CCC(N)=O)NC(=O)[C@H](C)NC1=O` (H-PCLYLAQCS-OH; linker 2-8 via CH2COCH2), the Ki rises from 10.1 nM to 36 nM (3.6-fold).

`CSCC[C@H](NC(=O)[C@@H]1CSCc2cccc(n2)CSC[C@H](NC(=O)[C@@H](N)CCCNC(=N)N)C(=O)N[C@@H](CC(=O)O)C(=O)N[C@@H](CO)C(=O)N[C@@H](CO)C(=O)N[C@@H](CCC(N)=O)C(=O)N1)C(=O)N[C@@H](CCC(N)=O)C(=O)NCC(=O)N[C@@H](CCC(N)=O)C(=O)N[C@H]1CSCc2cccc(n2)CSC[C@@H](C(=O)N2CCC[C@H]2C(=O)O)NC(=O)[C@H](CO)NC(=O)[C@H](CCCNC(=N)N)NC(=O)[C@H](Cc2ccc(O)cc2)NC(=O)[C@H](CC(C)C)NC1=O` (H-RCDSSQCMQGQCLYRSCP-OH; linker 2-7, 12-17 via Pyridine(2,6-diCH2)) and `CC[C@H](C)[C@@H]1NC(=O)[C@H](CCCNC(=N)N)NC(=O)[C@H](Cc2ccc(O)cc2)NC(=O)[C@H](CC(C)C)NC(=O)[C@@H](NC(=O)[C@H](CCC(N)=O)NC(=O)[C@@H]2CCCN2C(=O)[C@@H]2CSCc3cccc(n3)CSC[C@H](NC(=O)[C@@H](N)Cc3c[nH]cn3)C(=O)N[C@@H](CCCNC(=N)N)C(=O)N[C@@H](CCCCN)C(=O)NCC(=O)N[C@@H](CC(C)C)C(=O)N[C@@H](CC(=O)O)C(=O)N[C@@H](CCCNC(=N)N)C(=O)N2)CSCc2cccc(n2)CSC[C@@H](C(=O)N[C@@H](CO)C(N)=O)NC1=O` (H-HCRKGLDRCPQCLYRICS-NH2; linker 2-9, 12-17 via Pyridine(2,6-diCH2)) are within 1.5-fold of each other in Ki: 94 nM for the first, 66 nM for the second.

Compared with `CC(=O)[C@@H]1CCCN1C(=O)[C@@H]1CSCc2cccc(n2)CSC[C@H](NC(=O)[C@@H]2CCCN2)C(=O)N[C@@H](CC(C)C)C(=O)N[C@@H](Cc2ccc(O)cc2)C(=O)N[C@@H](CC(C)C)C(=O)N[C@@H](CO)C(=O)N1` (H-PCLYLSC-{Pyrrolidin1yl(2S-Ac)}; linker 2-7 via Pyridine(2,6-diCH2)), `CC(C)C[C@@H]1NC(=O)[C@@H](NC(=O)[C@@H]2CCCN2)CSCc2cccc(n2)CSC[C@@H](C(=O)N[C@@H](CO)C(=O)O)NC(=O)[C@H](CO)NC(=O)[C@H](CC(C)C)NC(=O)[C@H](Cc2ccc(O)cc2)NC1=O` (H-PCLYLSCS-OH; linker 2-7 via Pyridine(2,6-diCH2)) is 1.7-fold lower in Ki: 50 nM for the first, 29.4 nM for the second.

`CC(C)C[C@@H]1NC(=O)[C@@H](NC(=O)C(N)CCC(N)=O)CSCc2cccc(n2)CSC[C@@H](C(=O)N[C@@H](CO)C(=O)O)NC(=O)[C@H](CO)NC(=O)[C@H](CC(C)C)NC(=O)[C@H](Cc2ccc(O)cc2)NC1=O` (single isomer, unassigned) and `CC(C)C[C@@H]1NC(=O)[C@@H](NC(=O)C(N)CCCNC(=N)N)CSCc2cccc(n2)CSC[C@@H](C(=O)N[C@@H](CO)C(=O)O)NC(=O)[C@H](CO)NC(=O)[C@H](CC(C)C)NC(=O)[C@H](Cc2ccc(O)cc2)NC1=O` (single isomer, unassigned) are within 1.5-fold of each other in Ki: 12 nM for the first, 8.8 nM for the second.

First: CC(C)C[C@@H]1NC(=O)[C@@H](NC(=O)[C@@H]2CCCN2)CSCc2cccc(n2)CSC[C@@H](C(=O)N[C@@H](CO)C(=O)O)NC(=O)[C@H](CO)NC(=O)[C@H](CCC(N)=O)NC(=O)[C@H](Cc2ccc(O)cc2)NC1=O (H-PCLYQSCS-OH; linker 2-7 via Pyridine(2,6-diCH2))
Second: CC(C)C[C@@H]1NC(=O)[C@@H](NC(=O)[C@@H]2CCCN2)CSCc2cccc(n2)CSC[C@@H](C(=O)N[C@@H](CO)C(=O)O)NC(=O)[C@H](CO)NC(=O)[C@H](CCCNC(=N)N)NC(=O)[C@H](Cc2ccc(O)cc2)NC1=O (H-PCLYRSCS-OH; linker 2-7 via Pyridine(2,6-diCH2))
The Ki of the first is 8.3-fold higher: 440 nM for the first, 53 nM for the second.

Compared with `CC(C)C[C@@H]1NC(=O)[C@@H](NC(=O)[C@@H]2CCCN2)CSCc2cccc(n2)CSC[C@@H](C(=O)N[C@@H](CO)C(=O)O)NC(=O)[C@H](CO)NC(=O)[C@H](CC(C)C)NC(=O)[C@H](Cc2ccccc2)NC1=O` (H-PCLFLSCS-OH; linker 2-7 via Pyridine(2,6-diCH2)), `CC(C)C[C@@H]1NC(=O)[C@@H](NC(=O)[C@@H]2CCCN2)CSCc2cccc(n2)CSC[C@@H](C(=O)N[C@@H](CO)C(=O)O)NC(=O)[C@H]([C@@H](C)O)NC(=O)[C@H](CC(C)C)NC(=O)[C@H](Cc2ccc(O)cc2)NC1=O` (H-PCLYLTCS-OH; linker 2-7 via Pyridine(2,6-diCH2)) is 4.2-fold lower in Ki: 220 nM for the first, 52 nM for the second. The second binds more tightly here.

Going from `CC(C)C[C@@H]1NC(=O)[C@@H](NC(=O)[C@@H](N)Cc2ccccc2)CSCC(=O)CSC[C@@H](C(=O)N[C@@H](CCC(N)=O)C(=O)N2CCC[C@H]2C(=O)N2CCC[C@H]2C(=O)N[C@@H](CCC(=O)O)C(=O)N[C@@H](C)C(=O)N[C@H]2CSCC(=O)CSC[C@@H](C(=O)N[C@@H](CCC(=O)O)C(=O)O)NC(=O)[C@H](CCC(N)=O)NC(=O)[C@H](CO)NC(=O)[C@@H]3CCCN3C2=O)NC(=O)[C@H](Cc2c[nH]c3ccccc23)NC(=O)[C@@H]2CCCN2C(=O)[C@H](Cc2c[nH]c3ccccc23)NC1=O` (H-FCLWPWCQPPEACPSQCE-OH; linker 2-7, 13-17 via CH2COCH2) to `CSCC[C@@H]1NC(=O)[C@H](Cc2ccc(O)cc2)NC(=O)[C@H](CC(C)C)NC(=O)[C@@H](NC(=O)[C@@H](N)CCC(N)=O)CSCC(=O)CSC[C@@H](C(=O)N[C@@H](CO)C(=O)N2CCC[C@H]2C(=O)N[C@H](C(=O)N[C@H]2CSCC(=O)CSC[C@@H](C(=O)N[C@@H](CCC(N)=O)C(=O)O)NC(=O)[C@H](Cc3ccc(O)cc3)NC(=O)[C@H](CCC(N)=O)NC(=O)[C@H](CCC(N)=O)NC(=O)[C@@H]3CCCN3C2=O)C(C)C)NC(=O)[C@H](CCCNC(=N)N)NC(=O)[C@H](C)NC1=O` (H-QCLYMARCSPVCPQQYCQ-OH; linker 2-8, 12-17 via CH2COCH2), the Ki falls from over 1000 nM to 9 nM.

First: CCCCCCCCCCCCCCCC(=O)NCCCC[C@H](NC(=O)[C@H](CCC(=O)O)NC(=O)[C@H](Cc1ccc(O)cc1)NC(=O)[C@H](CCC(=O)O)NC(=O)COCCOCCNC(=O)c1ccc(-c2c3ccc(=O)cc-3oc3cc(O)ccc23)c(C(=O)O)c1)C(=O)N[C@@H](CCC(=O)O)C(=O)N[C@@H](Cc1ccc(O)cc1)C(=O)N[C@@H](CCC(=O)O)C(=O)NCCOCCOCC(=O)NCCCC[C@H](NC(=O)CNC(=O)[C@@H]1CSCC(=O)CSC[C@H](NC(=O)[C@@H]2CCCN2)C(=O)N[C@@H](CC(C)C)C(=O)N[C@@H](Cc2ccc(O)cc2)C(=O)N[C@@H](CCCC)C(=O)N[C@@H](C)C(=O)N[C@@H](CCCNC(=N)N)C(=O)N1)C(=O)NCC(N)=O
Second: CC[C@H](C)[C@@H]1NC(=O)[C@H](Cc2ccc(O)cc2)NC(=O)[C@H](CC(C)C)NC(=O)[C@@H](NC(=O)[C@@H](N)CCC(N)=O)CSCc2cccc(n2)CSC[C@@H](C(=O)N2CCC[C@H]2C(=O)N[C@@H](CO)C(=O)N[C@@H](C)C(=O)N[C@@H](C)C(=O)N[C@@H](CCCCN)C(=O)N[C@H]2CSCc3cccc(n3)CSC[C@@H](C(=O)N[C@@H](CCC(N)=O)C(N)=O)NC(=O)CNC(=O)[C@H](CC(N)=O)NC(=O)[C@H](CC(=O)O)NC2=O)NC(=O)[C@H](C)NC1=O (H-QCLYIACPSAAKCDNGCQ-NH2; linker 2-7, 13-17 via Pyridine(2,6-diCH2))
The Ki of the first is 4.6-fold lower: 7 nM for the first, 32 nM for the second. The first binds more tightly here.

`CC(C)C[C@@H]1NC(=O)[C@H](Cc2ccc(O)cc2)NC(=O)[C@H](CC(C)C)NC(=O)[C@@H](NC(=O)[C@@H]2CCCN2)CSCc2cccc(n2)CSC[C@@H](C(=O)O)NC(=O)[C@H](C)NC1=O` (mixture of isomers) gave a Ki of 19 nM.

Same assay, conditions: cho

In the case of `CC(C)C[C@@H]1NC(=O)[C@@H](NC(=O)[C@@H]2CCCN2)CSCC(=O)CSC[C@@H](C(=O)N[C@@H](CO)C(=O)O)NC(=O)[C@H](CCCNC(=N)N)NC(=O)[C@H](CO)NC(=O)[C@H](CC(C)C)NC(=O)[C@H](Cc2ccc(O)cc2)NC1=O` (racemic), the Ki is reported as 90 nM.
